The results in this text go back to patent publication US9657081B2, “Inhibiting peptides derived from triggering receptor expressed on myeloid cells-1 (TREM-1) TREM-like transcript 1 (TLT-1) for treatment of cardiovascular diseases” (INSERM (Institut National de la Sante et de la Recherche …, priority 2013, dated 2017).

In assay [1] the test system is TREM-1. Nature of the assay: Rat model of sepsis-induced cardiac dysfunction, intrinsic cardiac function by Millar catheter. More on the design: dpdtmax/Ved / PRSW: unit not given beside the values; FEVG / ESPVR: unit not given here. Format: in vivo. From the text:
TREM-1- and TLT-1-derived peptides administration during rat model of sepsis-induced cardiac dysfunction is associated with an increase of intrinsic cardiac function measured by Millar catheter (FEVG, ESPVR, dpdtmax/Ved, PRSW).
Rats were anaesthetized with isoflurane and a 2 F high-fidelity micro-manometer catheter (SPR-407, Millar Institute, Houston, Tex., USA) was inserted into the LV via the right carotid artery. The Millar catheter was connected to a Harvard Data Acquisition System interfaced with a PC with the AcqKnowledge III software (ACQ 3.2).

For assay [2], the target named is T1, TREM-1 (Mus musculus, UniProt Q9JKE2).
T1 construct: endogenous in cells; host or cells: living mice (C57BL, Balb/c, ApoE-/-), in vivo
T1 sequence (Q9JKE2 21-230): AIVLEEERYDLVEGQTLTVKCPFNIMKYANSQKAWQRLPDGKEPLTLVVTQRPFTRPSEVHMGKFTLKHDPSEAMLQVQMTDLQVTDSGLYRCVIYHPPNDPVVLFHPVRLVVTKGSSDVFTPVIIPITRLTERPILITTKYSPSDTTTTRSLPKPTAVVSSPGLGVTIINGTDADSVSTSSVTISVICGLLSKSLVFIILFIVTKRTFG
Kind of assay: Mouse myocardial infarction, leukocyte recruitment and mobilization (flow cytometry), plasma chemokines. Format: in vivo. On the procedure:
All procedures were performed on mice male C57BL/C ranging in age from 6-8 weeks. Mice were anesthetized by an intraperitoneal injection of xylazine (60 mg/kg) and fixed in supine position. The trachea was intubated and ventilated (the tidal volume was 200 μl/25 g and the respiratory rate was 120 breaths/min). After a left thoracotomy, the left coronary artery was identified and ligated with an 8-0 prolene surgical suture at 1.0 mm distal from tip of the left auricle. LAD occlusion was confirmed by a change in myocardial color from red to white in the ischemia area (Left ventricle). The chest was closed and the skin was sutured with 6-0 silk. The animals returned to their cage where they are supervised until their complete recovery.
Mice were monitored after surgery for mortality. Mice were randomized to receive or not peptides (daily ip injection for 5 days, 5 mg/kg) and monitored for survival. […] A median sternotomy was performed followed by excision of the heart and dissection of ischemic and non-ischemic areas. ARN extraction and protein extraction were then performed for RT-PCR, WB, immunohistology, and ELISA analysis.
To prepare single-cell suspensions from infarct tissue, hearts were harvested; minced with fine scissors; placed into a cocktail of collagenase I, collagenase XI, DNase I, and hyaluronidase (Sigma-Aldrich); and shaken at 37° C. for 1 h. Cells were then triturated through and centrifuged (15 min, 500 g, 4° C.).
Spleens were removed, triturated in HBSS at 4° C. with the end of a 3-ml syringe, and filtered through 70-μm nylon filters (BD). The cell suspension was centrifuged at 300 g for 10 min at 4° C. Red blood cells were lysed (Red Blood Cells Lysis solution, Miltenyi), and the splenocytes were washed with HBSS and resuspended in HBSS supplemented with 0.2% (wt/vol) BSA. Peripheral blood was drawn via cardiac puncture with citrate solution as anticoagulant, and red blood cells were lysed. Finally, bone-marrow single-cell suspensions were obtained from femurs after flushing them with 1 mL HBSS, filtering through 70-μm nylon filters and centrifugation at 300 g for 10 min at 4° C. Total viable cell numbers were determined from aliquots using a hemacytometer with Trypan blue (BioRad).
Cell suspensions were incubated in a cocktail of mAbs against CD4^+ or CD8^+ T cells (CD4- or CD8-APC, CD3ε-PE, CD45-FITC), B cells (CD19-PE, CD45-FITC), granulocytes (CD45-FITC, Ly-6G-APC), monocytes subsets (CD115-PE, Ly-6C-APC, CD45-FITC), all antibodies from Miltenyi Biotech. Reported cell numbers were calculated as the product of total living cells (total viable leukocytes per ml) and percentage of cells within selected gate, and reported per mg of tissue (heart), per organ (femur and spleen), or per mL (blood). Data were acquired on a FC500 cytometer (Beckman Coulter).
On the technique in general: Flow cytometry measures light scatter and fluorescence of single cells or particles in a stream.

Take “LQEEDAGEYGCM (listed as Homo sapiens) [TLT1-LR12]”: in the assay with TREM-1 [1], the ESPVR is 2.7 ± 0.1, the FEVG came to 77.2 ± 9.2, the PRSW is given as 143 ± 7 and the dpdtmax/Ved is recorded as 158 ± 18. Moreover, the peripheral blood neutrophilia entry with TREM-1 [2] (72 hours after MI) is on record as “not observed”. In the assay with TREM-1 [2] (mouse MI), the “B- and CD8+-lymphocyte infiltration of infarcted myocardium” value was “reduced”; the “CD4+-cells recruitment to infarcted myocardium” value is recorded as “increased”; the “PMN infiltration of infarcted myocardium” value is recorded as “blocked”.
